In US8492374B2, “Azaazulene compounds” (Industrial Technology Research Institute, priority 2009, dated 2013):
One block for each molecule: values may come before it.

Legend:
[1] = test system: MV4-11 (FLT3-ITD) cell line; assay: In vitro cell activity assay (MTT cell viability, 72 hours); type: cell-based; conditions: Homo sapiens, 72 hours at 37° C., 10,000 cells per well, read-out: IC50 against MV4-11
Description: Human MV4-11 (FLT3-ITD) cell line was obtained from American Tissue Culture Collection (ATCC number: CRL-9591). The cell line was cultured with RPMI 1640 containing 10% fetal bovine serum, 1 mmol/L sodium pyruvate and 10 mmol/L HEPES (pH 7.4). The cell was grown and maintained in a humidified atmosphere at 37° C. and 5% carbon dioxide.
MV4-11 cell was plated in 96-well microtiter plates (10,000 cells per well) and serial dilutions of indicated compounds were added. At the end of the incubation period (72 hours at 37° C.), cell viability was determined by a tetrazolium dye, MTT (3-(4,5-dimethylthiazol-2-yl)-2,5-diphenyl tetrazolium bromide) (Promega, Madison, Wis.). The formazan crystals were dissolved by DMSO, and the absorbance at a wavelength of 600 nm was recorded using an ELISA plate reader. IC50 values were calculated using nonlinear regression and defined as the concentration needed for a 50% reduction in absorbance of treated versus untreated control cells.

FLT-3 kinase = biological target: T1, FLT-3 kinase (Homo sapiens, UniProt P36888); assay: FLT-3 kinase DELFIA assay (HTScan FLT-3 Kinase Assay Kit); type: biochemical; conditions: 20 uM ATP; for inhibition at 0.1 µM: 0.1 uM compound; for inhibition at 1 µM: 1 uM compound
T1 construct: human FLT-3 (Arg571-Ser993); GST (N); purchased Cell Signaling Technology HTScan FLT-3 Kinase Assay Kit; host or cells: baculovirus expression system
T1 sequence (P36888 571-993): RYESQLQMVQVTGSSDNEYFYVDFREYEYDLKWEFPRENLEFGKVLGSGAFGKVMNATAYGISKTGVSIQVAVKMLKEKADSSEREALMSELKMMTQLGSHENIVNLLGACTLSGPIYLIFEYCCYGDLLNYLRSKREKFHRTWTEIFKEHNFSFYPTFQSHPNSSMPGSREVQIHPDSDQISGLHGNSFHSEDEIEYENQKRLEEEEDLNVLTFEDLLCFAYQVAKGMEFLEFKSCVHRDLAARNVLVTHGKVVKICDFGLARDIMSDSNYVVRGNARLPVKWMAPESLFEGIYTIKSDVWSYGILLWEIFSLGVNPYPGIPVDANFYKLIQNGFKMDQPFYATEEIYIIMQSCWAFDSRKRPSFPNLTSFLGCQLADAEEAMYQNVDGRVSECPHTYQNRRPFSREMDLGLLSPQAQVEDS
Description: Azaazulene Compounds of this invention were treated for their efficacy in inhibiting activities of FLT-3, c-KIT and KDR kinases by biochemical DELFIA (Dissociation Enhanced Lanthanide FIA) assays according to the procedure described below. The assays were conducted by, Division of Cell Engineering, Biomedical Engineering Research Laboratories, Industrial Technology Research Institute, Bldg. 53, 195, sec. 4, Chung Hsing Rd. Chutung, Hsinchu, Taiwan 310, R.O.C.
The FLT-3 assay was conducted following the protocol described in Protocol for HTScang FLT-3 Kinase Assay Kit (Cell Signaling Technology®).

IC50 [1]: 1000 to 5000 nM
Structure (SMILES): O=c1[nH]c2cccccc-2c1-c1nc2cc(F)c(F)cc2[nH]1 [Compound B3]

inhibition at 0.1 µM (FLT-3 kinase): 16.4%
inhibition at 1 µM (FLT-3 kinase): 40.2%
Structure (SMILES): O=c1[nH]c2cccccc-2c1-c1nc2cc3ccccc3cc2[nH]1 [Compound B18]

inhibition at 0.1 µM (FLT-3 kinase): 14.7%
inhibition at 1 µM (FLT-3 kinase): 28.6%
IC50 [1]: 1000 to 5000 nM
Structure (SMILES): N#Cc1ccc2[nH]c(-c3c4cccccc-4[nH]c3=O)nc2c1 [Compound B19]

inhibition at 0.1 µM (FLT-3 kinase): 29.1%
inhibition at 1 µM (FLT-3 kinase): 83.9%
IC50 [1]: 42.9 nM
Structure (SMILES): O=c1[nH]c2cccccc-2c1-c1nc2cc(N3CCNCC3)ccc2[nH]1 [Compound B22]

inhibition at 0.1 µM (FLT-3 kinase): 41.2%
inhibition at 1 µM (FLT-3 kinase): 91.5%
IC50 [1]: 34.4 nM
Structure (SMILES): O=c1[nH]c2cccccc-2c1-c1nc2cc(N3CCNCC3)ccc2n1CC(F)(F)F [Compound B23]

IC50 [1]: 375 nM
Structure (SMILES): CN1CCN(c2ccc3[nH]c(-c4c5cccccc-5[nH]c4=O)nc3n2)CC1 [Compound B27]

IC50 [1]: 96.3 nM
Structure (SMILES): CCN1CCN(c2ccc3[nH]c(-c4c5cccccc-5[nH]c4=O)nc3c2)CC1 [Compound B28]

inhibition at 0.1 µM (FLT-3 kinase): 8%
inhibition at 1 µM (FLT-3 kinase): 8.1%
IC50 [1]: 1000 to 5000 nM
Structure (SMILES): CCN(CC)CCCCn1c2cccccc-2c(-c2nc3cc(N4CCN(C)CC4)ccc3[nH]2)c1=O [Compound B32]

inhibition at 0.1 µM (FLT-3 kinase): 42%
inhibition at 1 µM (FLT-3 kinase): 86.7%
IC50 [1]: 159 nM
Structure (SMILES): CN1CCC(N2CCN(c3ccc4[nH]c(-c5c6cccccc-6[nH]c5=O)nc4c3)CC2)CC1 [Compound B35]

inhibition at 0.1 µM (FLT-3 kinase): 24.8%
inhibition at 1 µM (FLT-3 kinase): 64%
IC50 [1]: 151 nM
Structure (SMILES): O=c1[nH]c2cccccc-2c1-c1nc2cc(N3CCN(CCO)CC3)ccc2[nH]1 [Compound B36]

inhibition at 0.1 µM (FLT-3 kinase): 27.3%
inhibition at 1 µM (FLT-3 kinase): 77%
IC50 [1]: 318 nM
Structure (SMILES): CN(C)c1ccc(CN2CCN(c3ccc4[nH]c(-c5c6cccccc-6[nH]c5=O)nc4c3)CC2)cc1 [Compound B45]

The next lines start with the molecule.

Structure (SMILES): O=c1[nH]c2cccccc-2c1-c1nc2cc(Cl)cnc2[nH]1 [Compound B10]
inhibition at 0.1 µM (FLT-3 kinase): 8.9%
inhibition at 1 µM (FLT-3 kinase): 20.3%
IC50 [1]: 1000 to 5000 nM

Structure (SMILES): O=c1[nH]c2cccccc-2c1-c1cn2cccnc2n1 [Compound B12]
inhibition at 0.1 µM (FLT-3 kinase): 4.5%
inhibition at 1 µM (FLT-3 kinase): 1.6%
IC50 [1]: > 5000 nM

Structure (SMILES): O=c1[nH]c2cccccc-2c1-c1cn2ccc(Cl)cc2n1 [Compound B16]
inhibition at 0.1 µM (FLT-3 kinase): 4.8%
inhibition at 1 µM (FLT-3 kinase): 16.5%
IC50 [1]: > 5000 nM

Structure (SMILES): O=c1[nH]c2cccccc-2c1-c1cn2cc(Br)ccc2n1 [Compound B17]
inhibition at 0.1 µM (FLT-3 kinase): 4.9%
inhibition at 1 µM (FLT-3 kinase): 23.4%
IC50 [1]: 1000 to 5000 nM

Structure (SMILES): CC(C)(C)OC(=O)Nc1ccc2[nH]c(-c3c4cccccc-4[nH]c3=O)nc2c1 [Compound B20]
inhibition at 0.1 µM (FLT-3 kinase): 16.7%
inhibition at 1 µM (FLT-3 kinase): 33.3%
IC50 [1]: 1000 to 5000 nM

Structure (SMILES): CC1CN(c2ccc3[nH]c(-c4c5cccccc-5[nH]c4=O)nc3c2)CC(C)N1 (centres unmarked) [Compound B24]
inhibition at 0.1 µM (FLT-3 kinase): 19.1%
inhibition at 1 µM (FLT-3 kinase): 71.5%
IC50 [1]: 75 nM

Structure (SMILES): CN(C)CCCN1CCN(c2ccc3[nH]c(-c4c5cccccc-5[nH]c4=O)nc3c2)CC1 [Compound B33]
inhibition at 0.1 µM (FLT-3 kinase): 58.7%
inhibition at 1 µM (FLT-3 kinase): 96.6%
IC50 [1]: 54.2 nM

Structure (SMILES): CCCCN(CCCC)CCN1CCN(c2ccc3[nH]c(-c4c5cccccc-5[nH]c4=O)nc3c2)CC1 [Compound B34]
inhibition at 0.1 µM (FLT-3 kinase): 40.2%
inhibition at 1 µM (FLT-3 kinase): 85.4%
IC50 [1]: 151 nM

Structure (SMILES): O=c1[nH]c2cccccc-2c1-c1nc2cc(N3CCN(CCF)CC3)ccc2[nH]1 [Compound B38]
inhibition at 0.1 µM (FLT-3 kinase): 21.8%
inhibition at 1 µM (FLT-3 kinase): 69.2%
IC50 [1]: 118 nM

Structure (SMILES): O=c1[nH]c2cccccc-2c1-c1nc2cc(N3CCN(CCCF)CC3)ccc2[nH]1 [Compound B39]
inhibition at 0.1 µM (FLT-3 kinase): 24.3%
inhibition at 1 µM (FLT-3 kinase): 78.6%
IC50 [1]: 62.2 nM

Structure (SMILES): O=c1[nH]c2cccccc-2c1-c1nc2cc(N3CCN(C[C@@H](O)CO)CC3)ccc2[nH]1 [Compound B40]
inhibition at 0.1 µM (FLT-3 kinase): 38.2%
inhibition at 1 µM (FLT-3 kinase): 88.1%
IC50 [1]: 72.3 nM

Structure (SMILES): O=c1[nH]c2cccccc-2c1-c1nc2cc(N3CCN(Cc4ccc5ccccc5c4)CC3)ccc2[nH]1 [Compound B43]
inhibition at 0.1 µM (FLT-3 kinase): 33.5%
inhibition at 1 µM (FLT-3 kinase): 67.2%
IC50 [1]: 1000 to 5000 nM

Structure (SMILES): O=c1[nH]c2cccccc-2c1-c1nc2cc(N3CCN(Cc4ccccc4)CC3)ccc2[nH]1 [Compound B44]
inhibition at 0.1 µM (FLT-3 kinase): 29%
inhibition at 1 µM (FLT-3 kinase): 79.1%
IC50 [1]: 190 nM
